Series [1] addresses T1, α4β1 integrin (Jurkat T-cell adhesion to IL-1 stimulated endothelial cell monolayers) (Homo sapiens, UniProt P05556+P13612).
T1 construct: a T-cell line, Jurkat, known to express the α4β1 integrin; host or cells: Jurkat T-cell line
Description: Jurkat-endothelial cell adhesion assay (Jurkat EC). The series is classed as cell-based. The note with it: Jurkat cells on IL-1 stimulated human umbilical vein endothelial cells; read-out: JK/EC (Jurkat EC Assay IC50 value range). A digest of the protocol: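 Adhesion was expressed as percent of compound-free fluorescence after 20 min at 37° C (following 5 min settling on ice) of BCECF-loaded Jurkat T cells on washed HUVEC monolayers. The endothelium, passage 6 or lower, had received 0.1 ng/ml recombinant IL-1 for 4 hr at 37° C; compound was premixed with the T cells, typically at 100, 20, 5 and 1.25 μM.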

In series [2] the target is T2, α4β1 integrin (Jurkat cell adhesion to immobilized CS-1 derived peptide CLHPGEILDVPST) (Homo sapiens, UniProt P05556+P13612).
T2 construct: 100 μl of Jurkat cells (2.5×10^6 cells/ml) in DMEM plus BSA; host or cells: Jurkat T-cell line
Description: Jurkat-CS-1 assay. The format is cell-based. The conditions noted are these: Jurkat cells on CS-1 peptide coated plates; read-out: JK/CS-1 (Jurkat CS-1 Assay IC50 value range). A digest of the protocol: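 CS-1 peptide was SPDP-crosslinked onto HSA-coated plates and blocked with BSA. Jurkat cells (2.5×10^6 cells/ml) in DMEM/BSA were mixed with compound, generally at 100, 20, 5 and 1.25 μM, and allowed to adhere for 1 hr at 37° C. Bound cells were fixed, stained with toluidine blue and quantified by OD590.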

Where a name gives a salt, the structure may show the parent alone.

Usually melting point stands for the temperature of the solid-liquid transition.

T1 sequence (P13612 34-1032): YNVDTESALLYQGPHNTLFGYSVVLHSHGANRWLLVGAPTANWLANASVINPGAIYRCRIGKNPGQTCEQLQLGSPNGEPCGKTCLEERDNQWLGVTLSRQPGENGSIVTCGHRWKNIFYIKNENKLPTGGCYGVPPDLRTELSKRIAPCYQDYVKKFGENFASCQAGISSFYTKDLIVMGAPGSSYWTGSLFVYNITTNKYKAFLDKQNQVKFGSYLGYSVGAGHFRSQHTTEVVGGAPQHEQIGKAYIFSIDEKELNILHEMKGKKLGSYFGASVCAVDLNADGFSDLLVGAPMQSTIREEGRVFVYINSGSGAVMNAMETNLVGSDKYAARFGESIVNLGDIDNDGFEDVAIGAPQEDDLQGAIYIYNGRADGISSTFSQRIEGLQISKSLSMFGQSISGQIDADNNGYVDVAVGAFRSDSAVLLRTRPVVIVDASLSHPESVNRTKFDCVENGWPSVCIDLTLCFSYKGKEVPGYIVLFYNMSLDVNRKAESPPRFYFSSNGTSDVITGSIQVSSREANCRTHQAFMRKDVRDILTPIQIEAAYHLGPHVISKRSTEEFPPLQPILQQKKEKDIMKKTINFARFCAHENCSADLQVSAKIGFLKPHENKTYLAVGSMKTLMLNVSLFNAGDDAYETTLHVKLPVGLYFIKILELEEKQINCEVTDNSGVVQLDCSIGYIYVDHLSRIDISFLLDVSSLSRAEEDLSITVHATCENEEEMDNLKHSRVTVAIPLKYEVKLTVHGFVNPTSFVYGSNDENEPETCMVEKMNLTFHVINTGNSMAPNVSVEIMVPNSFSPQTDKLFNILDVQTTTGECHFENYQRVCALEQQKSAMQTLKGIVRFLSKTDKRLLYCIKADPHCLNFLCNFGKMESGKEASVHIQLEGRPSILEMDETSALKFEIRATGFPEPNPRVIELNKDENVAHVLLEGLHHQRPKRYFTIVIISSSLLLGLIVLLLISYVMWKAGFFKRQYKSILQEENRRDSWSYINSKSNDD
T1 sequence (P05556 21-798): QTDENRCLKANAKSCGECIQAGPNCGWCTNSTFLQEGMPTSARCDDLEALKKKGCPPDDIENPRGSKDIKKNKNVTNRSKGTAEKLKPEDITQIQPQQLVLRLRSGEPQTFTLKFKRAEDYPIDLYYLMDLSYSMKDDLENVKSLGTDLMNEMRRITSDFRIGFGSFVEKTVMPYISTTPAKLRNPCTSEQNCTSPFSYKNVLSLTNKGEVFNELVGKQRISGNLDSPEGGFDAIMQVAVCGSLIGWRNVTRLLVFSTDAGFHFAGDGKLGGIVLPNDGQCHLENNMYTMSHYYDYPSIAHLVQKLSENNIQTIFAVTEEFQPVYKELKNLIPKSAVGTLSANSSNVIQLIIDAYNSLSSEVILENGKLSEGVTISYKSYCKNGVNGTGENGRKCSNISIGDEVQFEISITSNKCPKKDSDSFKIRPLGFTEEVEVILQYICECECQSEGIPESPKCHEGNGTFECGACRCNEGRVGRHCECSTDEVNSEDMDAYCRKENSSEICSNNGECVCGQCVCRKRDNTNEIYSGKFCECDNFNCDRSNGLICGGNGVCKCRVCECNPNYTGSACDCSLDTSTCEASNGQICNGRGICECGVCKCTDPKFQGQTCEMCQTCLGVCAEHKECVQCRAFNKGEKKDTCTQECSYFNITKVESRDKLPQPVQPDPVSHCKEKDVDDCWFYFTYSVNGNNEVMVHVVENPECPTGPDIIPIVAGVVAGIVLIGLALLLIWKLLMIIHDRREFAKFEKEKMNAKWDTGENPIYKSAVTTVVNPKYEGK
T2 sequence (P13612 34-1032): as the sequence (P13612 34-1032) above
T2 sequence (P05556 21-798): as the sequence (P05556 21-798) above

In the case of `C[C@@H](c1ccccc1)N1[C@H](C(=O)O)C[C@H]1C(=O)N[C@@H](Cc1ccc(NC(=O)c2c(Cl)cccc2Cl)cc1)C(=O)O` (as salt: salt) [Example 129, [2S-[1(R*),2α,4β(R*)]]-4-[[[1-Carboxy-2-[4-[(2,6-dichlorobenzoyl)amino]phenyl]ethyl]-amino]carbonyl]-1-(1-phenylethyl)-2-azetidinecarboxylic Acid Dilithium Salt], the melting point came to 270 °C.
In turn, `CCOC(=O)N1CSC[C@@H]1C(=O)N[C@@H](Cc1ccc(NC(=O)c2c(Cl)cccc2Cl)cc1)C(=O)O` (relative stereo) [Example 12, [S-(R*,R*)]-4-[[[1-Carboxy-2-[4-[(2,6-dichlorobenzoyl)amino]phenyl]ethyl]amino]carbonyl]-3-thiazolidinecarboxylic Acid 3-Ethyl Ester] returned a melting point of 118 to 121 °C. In addition, in series [1], the IC50 was ≤ 250 nM. In addition, the IC50 in series [2] is ≤ 50 nM.
For `COC(=O)[C@H](Cc1ccc(OCc2c(Cl)cccc2Cl)cc1)NC(=O)[C@H]1CSCN1C(=O)OCCN1CCOCC1` (relative stereo) [Example 36, [S-(R*,R*)]-4-[[[1-[4-[(2,6-Dichlorophenyl)methoxy]phenyl]methyl]-2-methoxy-2-oxoethyl]amino]carbonyl]-3-thiazolidinecarboxylic Acid 3-[2-(4-Morpholinyl)ethyl]ester] the same measures were 138 to 140 °C, ≤ 250 nM and ≤ 50 nM.
As to `COC(=O)[C@H](Cc1ccc(OCc2c(Cl)cccc2Cl)cc1)NC(=O)[C@H]1CSCN1C(=O)OCc1ccccn1` (relative stereo) [Example 38, [S-(R*,R*)]-4-[[[1-[4-[(2,6-Dichlorophenyl)methoxy]phenyl]methyl]-2-methoxy-2-oxoethyl]amino]carbonyl]-3-thiazolidinecarboxylic Acid 3-[(2-Pyridinyl)methyl]ester], the melting point fell in the range of 123 to 125 °C. Moreover, in series [1], the IC50 was ≥ 1000 nM. Besides, the IC50 in series [2] was ≥ 750 nM.
As for `COC(=O)[C@H](Cc1ccc(OCc2c(Cl)cccc2Cl)cc1)NC(=O)[C@H]1CSCN1C(=O)OCCN1CCCC1` (relative stereo) [Example 39, [S-(R*,R*)]-4-[[[1-[4-[(2,6-Dichlorophenyl)methoxy]phenyl]methyl]-2-methoxy-2-oxoethyl]amino]carbonyl]-3-thiazolidinecarboxylic Acid 3-[2-(1-Pyrrolidinyl)ethyl]ester], the melting point is 130 to 132 °C. In addition, the IC50 in series [1] was ≤ 250 nM. Further, the IC50 in series [2] fell in the range of 50 to 750 nM.
For `CN(CCc1ccccn1)C(=O)N1CSC[C@@H]1C(=O)N[C@@H](Cc1ccc(OCc2c(Cl)cccc2Cl)cc1)C(=O)O` (relative stereo) [Example 153, [S-(R*,R*)]-4-[[[1-Carboxy-2-[4-[(2,6-dichlorophenyl)methoxy]phenyl]ethyl]amino]-carbonyl]-N-methyl-N-[2-(2-pyridinyl)ethyl]-3-thiazolidinecarboxamide] the same measures were 80 °C, ≥ 1000 nM and ≥ 750 nM.
In the same order, the values of `COC(=O)[C@H](Cc1ccc(OCc2c(Cl)cccc2Cl)cc1)NC(=O)[C@H]1CSCN1C(=O)OC1CCOC1` (relative stereo) [Example 156, [S-(R*,R*)]-4-[[[1-[[4-[(2,6-Dichlorophenyl)methoxy]phenyl]methyl]-2-methoxy-2-oxoethyl]amino]carbonyl]-3-thiazolidinecarboxylic Acid 3-(3-Tetrahydrofuranyl)ester] are 125 to 126.5 °C, ≥ 1000 nM and 50 to 750 nM.
On to `O=C(Nc1ccc(C[C@H](NC(=O)[C@@H]2CSCN2C(=O)C2NC(C(=O)O)CS2)C(=O)O)cc1)c1c(Cl)cccc1Cl` (stereo partly shown) [Example 244], for which the IC50 was 250 to 1000 nM in series [1] and 50 to 750 nM in series [2].
In the same order, the values of `O=C(Nc1ccc(C[C@H](NC(=O)[C@@H]2CSCN2C(=O)C2CCCO2)C(=O)O)cc1)c1c(Cl)cccc1Cl` (stereo partly shown) [Example 245] are ≤ 250 nM and 50 to 750 nM.
`O=C(Nc1ccc(C[C@H](NC(=O)[C@@H]2CSCN2C(=O)C2CCOC2)C(=O)O)cc1)c1c(Cl)cccc1Cl` (stereo partly shown) [Example 246]: the values for the IC50 in series [1] and in series [2] were 250 to 1000 nM and 50 to 750 nM, respectively.
In the same order, the values of `O=C(O)/C=C/C(=O)N1CCCC[C@@H]1C(=O)N[C@@H](Cc1ccc(NC(=O)c2c(Cl)cccc2Cl)cc1)C(=O)O` [Example 248] are 250 to 1000 nM and 50 to 750 nM.
Turning to `COCCC(=O)N1CCCC[C@@H]1C(=O)N[C@@H](Cc1ccc(NC(=O)c2c(Cl)cccc2Cl)cc1)C(=O)O` [Example 249], the IC50 in series [1] was in the range of 250 to 1000 nM; in series [2], 50 to 750 nM.
For `O=C(O)c1cccc(C(=O)N2CCCC[C@@H]2C(=O)N[C@@H](Cc2ccc(NC(=O)c3c(Cl)cccc3Cl)cc2)C(=O)O)n1` [Example 251] the same measures were ≤ 250 nM and ≤ 50 nM.
In the same order, the values of `O=C(Nc1ccc(C[C@H](NC(=O)[C@H]2CCCCN2C(=O)c2cccnc2)C(=O)O)cc1)c1c(Cl)cccc1Cl` [Example 252] are ≤ 250 nM and ≤ 50 nM.
In the same order, the values of `O=C(Nc1ccc(C[C@H](NC(=O)[C@H]2CCCCN2C(=O)C2CCCO2)C(=O)O)cc1)c1c(Cl)cccc1Cl` (stereo partly shown) [Example 253] are ≤ 250 nM and 50 to 750 nM.
As to `O=C(O)CCC(=O)N1CCC[C@@H]1C(=O)N[C@@H](Cc1ccc(NC(=O)c2c(Cl)cccc2Cl)cc1)C(=O)O` [Example 254], the IC50 in series [1] lay in the range of 250 to 1000 nM; in series [2] it was 50 to 750 nM.
In the same order, the values of `O=C(O)/C=C/C(=O)N1CCC[C@@H]1C(=O)N[C@@H](Cc1ccc(NC(=O)c2c(Cl)cccc2Cl)cc1)C(=O)O` [Example 255] are ≥ 1000 nM and 50 to 750 nM.
In the same order, the values of `COCCC(=O)N1CCC[C@@H]1C(=O)N[C@@H](Cc1ccc(NC(=O)c2c(Cl)cccc2Cl)cc1)C(=O)O` [Example 256] are ≤ 250 nM and ≤ 50 nM.
Take `O=C(O)c1cncc(C(=O)N2CCC[C@@H]2C(=O)N[C@@H](Cc2ccc(NC(=O)c3c(Cl)cccc3Cl)cc2)C(=O)O)c1` [Example 257]: the IC50 lay in the range of 250 to 1000 nM in series [1] and 50 to 750 nM in series [2].
Consider `O=C(O)c1cccc(C(=O)N2CCC[C@@H]2C(=O)N[C@@H](Cc2ccc(NC(=O)c3c(Cl)cccc3Cl)cc2)C(=O)O)n1` [Example 258], for which the IC50 in series [1] was ≤ 250 nM; in series [2], ≤ 50 nM.
For `O=C(Nc1ccc(C[C@H](NC(=O)[C@H]2CCCN2C(=O)c2cccnc2)C(=O)O)cc1)c1c(Cl)cccc1Cl` [Example 259] the same measures were ≤ 250 nM and 50 to 750 nM.
In the same order, the values of `O=C(Nc1ccc(C[C@H](NC(=O)[C@H]2CCCN2C(=O)C2CCCO2)C(=O)O)cc1)c1c(Cl)cccc1Cl` (stereo partly shown) [Example 260] are 250 to 1000 nM and 50 to 750 nM.
In the case of `O=C(O)/C=C/C(=O)N1CSC[C@@H]1C(=O)N[C@@H](Cc1ccc(NC(=O)c2c(Cl)cccc2Cl)cc1)C(=O)O` [Example 261], the values for the IC50 in series [1] and in series [2] were 250 to 1000 nM and 50 to 750 nM, respectively.
In the same order, the values of `COCCC(=O)N1CSC[C@@H]1C(=O)N[C@@H](Cc1ccc(NC(=O)c2c(Cl)cccc2Cl)cc1)C(=O)O` [Example 262] are ≤ 250 nM and ≤ 50 nM.
For `O=C(O)c1cncc(C(=O)N2CSC[C@@H]2C(=O)N[C@@H](Cc2ccc(NC(=O)c3c(Cl)cccc3Cl)cc2)C(=O)O)c1` [Example 263] the same measures were 250 to 1000 nM and 50 to 750 nM.
In the same order, the values of `O=C(O)c1cccc(C(=O)N2CSC[C@@H]2C(=O)N[C@@H](Cc2ccc(NC(=O)c3c(Cl)cccc3Cl)cc2)C(=O)O)n1` [Example 264] are ≤ 250 nM and ≤ 50 nM.
Consider `O=C(Nc1ccc(C[C@H](NC(=O)[C@H]2CSCN2C(=O)c2cccnc2)C(=O)O)cc1)c1c(Cl)cccc1Cl` [Example 265], for which the IC50 is ≤ 250 nM in series [1] and ≤ 50 nM in series [2].
In the same order, the values of `O=C(Nc1ccc(C[C@H](NC(=O)[C@H]2CSCN2C(=O)C2CCCO2)C(=O)O)cc1)c1c(Cl)cccc1Cl` (stereo partly shown) [Example 266] are ≤ 250 nM and ≤ 50 nM.
For `O=C(O)CCC(=O)N1CCSCCC1C(=O)N[C@@H](Cc1ccc(NC(=O)c2c(Cl)cccc2Cl)cc1)C(=O)O` (stereo partly drawn) [Example 267, 5-[[[(1S)-1-Carboxy-2-[4-[(2,6-dichlorobenzoyl)amino]phenyl]ethyl]amino]carbonyl]-tetrahydro-γ-oxo-1,4-thiazepine-4(5H)-butanoic Acid] the same measures were ≥ 1000 nM and 50 to 750 nM.
In the same order, the values of “[2R-[1(R*),2α,4β(S*)]]-4-[[[1-Carboxy-2-[4-[(2,6-dichlorobenzoyl)amino]phenyl]-ethyl]-amino]carbonyl]-1-(1-phenylethyl)-2-azetidinecarboxylic Acid Dilithium Salt [Example 135]” are 250 to 1000 nM and 50 to 750 nM.
For “[S]-3-[[[1-[[4-[(2,6-Dichlorobenzoyl)amino]phenyl]methyl]-2-methoxy-2-oxoethyl]amino]-carbonyl]-1-azetidinecarboxylic Acid 1-(1,1-Dimethyl)ethyl Ester [Example 145]”, the IC50 is ≥ 1000 nM in series [1] and ≥ 750 nM in series [2].

(Values after patent US6685617B1, “Inhibitors of α4β1 mediated cell adhesion” (Pharmacia & Upjohn Company, priority 1998, dated 2004).)
